Experimental data: publication PMC3001719, “The heme sensing response regulator HssR in Staphylococcus aureus but not the homologous RR23 in Listeria monocytogenes modulates susceptibility to the antimicrobial peptide plectasin” (BMC Microbiology, 2010)

Experiments:
[1] = system: L. monocytogenes wild type and response regulator mutant; test: Antibiotic susceptibility, commercial MIC technique (Trek); assay type: cell-based, Listeria monocytogenes; settings: dehydrated antimicrobials in microtitre wells, data not shown
Experimental: (§1) Antimicrobial susceptibility to ampicillin, gentamicin, sulfa/trimethoprim, rifampicin, tetracycline, amoxy/clavulan, cephalotin, clindamycin, enrofloxacin, fusidic acid and oxacillin was performed with a commercially available MIC technique using dehydrated antimicrobials in microtitre wells (Trek Diagnostic Systems Ltd., UK).

[2] = system: S. aureus wild type and response regulator mutants; test: as above; assay type: cell-based, Staphylococcus aureus; settings: dehydrated antimicrobials in microtitre wells, data not shown
Experimental: as §1

[3] = system: plasmid DNA (pBluescript II SK+); test: DNA-binding analysis by in vitro gel retardation; settings: 100 ng plasmid DNA with increasing amounts of peptide, 1 h at room temperature, data not shown
Experimental: Gel retardation analysis were performed as described by Nan et al by mixing 100 ng of plasmid DNA (pBluescript II SK^+(Stratagene)) with increasing amounts of peptide in 20 μl binding buffer (5% glycerol, 10 mM Tris, 1 mM EDTA, 1 mM dithiothreitol, 20 mM KCL and 50 μg ml^-1 bovine serum albumin). Reaction mixtures were incubated 1 h at room temperature and subjected to 1% agarose gel electrophoresis and visualised using ethidium bromide.

[4] = system: S. aureus 15981 ΔTCS15 (hssRS) deletion mutant; test: MIC, microbroth dilution; assay type: cell-based, Staphylococcus aureus; settings: MHB pH 7.4, 5.0 × 10^5 CFU/ml, 18-24 h at 37°C, visual growth
Experimental: (§2) Protamine was purchased from Sigma (P4020-5G). Plectasin, eurocin, novicidin, and novispirin G10 were supplied by Department of Antiinfective Discovery, Novozymes A/S. The host defence peptides were dissolved in 0.01% acetic acid/0.1% bovine serum albumin (Sigma, A7906).
(§3) Minimal inhibitory concentrations (MIC) of plectasin, eurocin, protamine, novicidin, and novispirin G10 were determined using a microbroth dilution method. Colonies from a BHI plate incubated overnight at 37 °C were suspended in MHB pH 7.4 to an absorbance at 546 nm of 0.11-0.12 at 546 nm (approx. 1.0 × 10^8 CFU/ml) and diluted in MHB to a concentration of 5.0 × 10^5 CFU/ml. Ninety μl of bacterial suspension was incubated with 10 μl of peptide solution in polypropylene 96-well plates (Nunc, 442587) for 18-24 h at 37°C. The peptide solutions were made fresh on the day of assay. The range of concentrations assayed were 0.25-256 μg/ml for plectasin and eurocin, 0.125-128 μg/ml for protamine and novispirin G10, and 0.031-32 μg/ml for novicidin. MIC was the lowest peptide concentration at which visual growth was inhibited.

[5] = system: S. aureus 8325-4 wild type; test: MIC, microbroth dilution; assay type: cell-based, Staphylococcus aureus; settings: MHB pH 7.4, 5.0 × 10^5 CFU/ml, 18-24 h at 37°C, visual growth
Experimental: as §2, §3

[6] = system: S. aureus 8325-4 hssR::bursa transposon mutant; test: MIC, microbroth dilution; assay type: cell-based, Staphylococcus aureus; settings: MHB pH 7.4, 5.0 × 10^5 CFU/ml, 18-24 h at 37°C, visual growth
Experimental: as §2, §3

[7] = system: S. aureus 15981 wild type; test: MIC, microbroth dilution; assay type: cell-based, Staphylococcus aureus; settings: MHB pH 7.4, 5.0 × 10^5 CFU/ml, 18-24 h at 37°C, visual growth
Experimental: as §2, §3

[8] = system: S. aureus 8325-4 hssR::bursa/pRMC2-hssRS (complementation of hssR transposon mutant); test: MIC, microbroth dilution; assay type: cell-based, Staphylococcus aureus; settings: 8325-4 hssR::bursa/pRMC2-hssRS complemented mutant; microbroth dilution, MHB pH 7.4, 5.0 × 10^5 CFU/ml, 18-24 h at 37°C, visual growth
Experimental: as §2, §3

[9] = system: S. aureus 8325-4 hssR (transduced mutant); test: MIC, microbroth dilution; assay type: cell-based, Staphylococcus aureus; settings: transduced 8325-4 hssR mutant, MHB pH 7.4, 5.0 × 10^5 CFU/ml, 18-24 h at 37°C, visual growth
Experimental: as §2, §3

[10] = system: S. aureus; test: ATP leakage (intracellular and extracellular ATP, bioluminescence); assay type: cell-based, Staphylococcus aureus; settings: 50 mM HEPES pH 7.0 with 0.2% glucose, vs peptide dilution buffer, two independent experiments; for ATP leakage: S. aureus, 1,000 μg/ml peptide
Experimental: (§4) L. monocytogenes and S. aureus were grown in TSB at 37°C. Bacteria were harvested (10 min at 3000 RPM) at mid-exponential phase (absorbance at 546 nm of 2.5 ± 0.2 and 1.0 ± 0.2 for S. aureus and L. monocytogenes, respectively), washed once in 50 mM potassium phosphate buffer pH 7.0 and once in 50 mM HEPES buffer pH 7.0. The pellet was resuspended in 50 mM HEPES pH 7.0 to a final absorbance at 546 nm of 10. Bacteria were stored on ice and used within 5 hours. […] ATP was determined using a bioluminescence kit (Sigma, FLAA-1KT) and a BioOrbit 1253 luminometer. Total ATP content was determined by rapidly permeabilising 20 μl cell suspension with 80 μl dimethyl sulfoxide. The cell suspension was diluted in 4.9 ml sterile water, and ATP content was determined in 100 μl of the preparation as described by the manufacturer. To determine the extracellular ATP concentration, the 20 μl cell suspension was mixed with 80 μl sterile water and analyzed as described above. Intracellular ATP concentrations were calculated by using the intracellular volumes of 0.85 and 1.7 μm^3 for S. aureus and L. monocytogenes, respectively. The number of cells in suspension was determined by plate spreading.

[11] = system: L. monocytogenes LO28 wild type; test: MIC, microbroth dilution; assay type: cell-based, Listeria monocytogenes; settings: MHB pH 7.4, 5.0 × 10^5 CFU/ml, 18-24 h at 37°C, visual growth
Experimental: as §2, §3

[12] = system: L. monocytogenes; test: ATP leakage (intracellular and extracellular ATP, bioluminescence); assay type: cell-based, Listeria monocytogenes; settings: 50 mM HEPES pH 7.0 with 0.2% glucose, vs peptide dilution buffer; for ATP leakage: L. monocytogenes, 1,000 μg/ml peptide
Experimental: as §4

[13] = system: S. aureus 8325-4 wild type; test: Growth in TSB with plectasin and/or hemin; assay type: cell-based, Staphylococcus aureus; settings: hemin 4 μM, 37°C, absorbance at 600 nm
Experimental: (§5) Overnight cultures of S. aureus were diluted to an absorbance at 600 nm of 0.05 in TSB with and without 4 μM hemin and/or 35 μg/ml plectasin and grown at 37°C. Measurements of the absorbance were made every 30 minutes.

[14] = system: S. aureus 8325-4 hssR mutant; test: Growth in TSB with plectasin and/or hemin; assay type: cell-based, Staphylococcus aureus; settings: hemin 4 μM, 37°C, with or without plectasin, hssR mutant
Experimental: as §5

[15] = system: hrtAB efflux system expression; settings: exposure to hemin, transcriptional activation by HssR; cited from earlier work
Source text: Both HrtAB and HssRS are required for growth of S. aureus in hemin [14].

[16] = system: L. monocytogenes LO28 RR23 (rr23 insertion mutant); test: MIC, microbroth dilution; assay type: cell-based, Listeria monocytogenes; settings: MHB pH 7.4, 5.0 × 10^5 CFU/ml, 18-24 h at 37°C, visual growth
Experimental: as §2, §3

CCC[C@@H]1C[C@@H](C(=O)N[C@@H]([C@H]2O[C@H](SC)[C@H](O)[C@@H](O)[C@H]2O)[C@H](C)Cl)N(C)C1 [clindamycin]
Change in MIC, wild type vs response regulator mutant [1]: No change in MIC values
Change in MIC, wild type vs response regulator mutants [2]: No change in MIC values

CNC(C)C1CCC(N)C(OC2C(N)CC(N)C(OC3OCC(C)(O)C(NC)C3O)C2O)O1 (centres unmarked) [gentamicin]
Change in MIC, wild type vs response regulator mutant [1]: No change in MIC values
Change in MIC, wild type vs response regulator mutants [2]: No change in MIC values

eurocin
Binding to DNA [3]: unable to demonstrate binding
MIC [4]: 32 µg/mL
MIC [5]: 32 µg/mL
MIC [6]: 64 µg/mL
MIC [7]: 8 µg/mL
MIC [8]: 32 µg/mL
MIC [9]: 64 µg/mL
ATP leakage (intracellular ATP concentration) ([10]; S. aureus, 500 μg/ml peptide): remained at the same level as the controls
MIC [11]: 128 µg/mL
ATP leakage (intracellular ATP concentration) ([12]; L. monocytogenes, 500 μg/ml peptide): remained at the same level as the controls

hemin
Growth in the presence of hemin [13]: only affected by plectasin (35 μg/ml) and not hemin
Growth in the presence of hemin [14]: almost completely inhibited
Increase of expression of hrtAB efflux system [15]: 45 fold

CO[C@H]1/C=C/O[C@@]2(C)Oc3c(C)c(O)c4c(O)c(c(/C=N/N5CCN(C)CC5)c(O)c4c3C2=O)NC(=O)/C(C)=C\C=C\[C@H](C)[C@H](O)[C@@H](C)[C@@H](O)[C@@H](C)[C@H](OC(C)=O)[C@@H]1C [rifampicin]
Change in MIC, wild type vs response regulator mutant [1]: No change in MIC values
Change in MIC, wild type vs response regulator mutants [2]: No change in MIC values

CN(C)[C@@H]1C(O)=C(C(N)=O)C(=O)[C@@]2(O)C(O)=C3C(=O)c4c(O)cccc4[C@@](C)(O)[C@H]3C[C@@H]12 [tetracycline]
Change in MIC, wild type vs response regulator mutant [1]: No change in MIC values
Change in MIC, wild type vs response regulator mutants [2]: No change in MIC values

novispirin G10
MIC [5]: 128 µg/mL
MIC [7]: >128 µg/mL
MIC [16]: 16 µg/mL
MIC [11]: 16 µg/mL

novicidin
MIC [4]: 1 µg/mL
MIC [5]: 1 µg/mL
MIC [6]: 1 µg/mL
MIC [7]: 1 µg/mL
MIC [9]: 1 µg/mL
ATP leakage [10]: increased ATP leakage
MIC [16]: 1 µg/mL
MIC [11]: 1 µg/mL
ATP leakage [12]: increased ATP leakage

CCN1CCN(c2cc3c(cc2F)c(=O)c(C(=O)O)cn3C2CC2)CC1 [enrofloxacin]
Change in MIC, wild type vs response regulator mutant [1]: No change in MIC values
Change in MIC, wild type vs response regulator mutants [2]: No change in MIC values

protamine
MIC [4]: 16 µg/mL
MIC [5]: 16 µg/mL
MIC [6]: 16 µg/mL
MIC [7]: 16 µg/mL
MIC [9]: 16 µg/mL
ATP leakage [10]: increased ATP leakage
MIC [16]: 16 µg/mL
MIC [11]: 16 µg/mL
ATP leakage [12]: increased ATP leakage

CC(=O)O[C@H]1C[C@@]2(C)[C@@H](C[C@@H](O)[C@H]3[C@@]4(C)CC[C@@H](O)[C@@H](C)[C@@H]4CC[C@@]32C)/C1=C(\CCC=C(C)C)C(=O)O [fusidic acid]
Change in MIC, wild type vs response regulator mutant [1]: No change in MIC values
Change in MIC, wild type vs response regulator mutants [2]: No change in MIC values

CC(=O)OCC1=C(C(=O)O)N2C(=O)[C@@H](NC(=O)Cc3cccs3)[C@H]2SC1 [cephalotin]
Change in MIC, wild type vs response regulator mutant [1]: No change in MIC values
Change in MIC, wild type vs response regulator mutants [2]: No change in MIC values

CC1(C)S[C@@H]2[C@H](NC(=O)[C@H](N)c3ccccc3)C(=O)N2[C@H]1C(=O)O [ampicillin]
Change in MIC, wild type vs response regulator mutant [1]: No change in MIC values
Change in MIC, wild type vs response regulator mutants [2]: No change in MIC values

Cc1onc(-c2ccccc2)c1C(=O)N[C@@H]1C(=O)N2[C@@H]1SC(C)(C)[C@@H]2C(=O)O [oxacillin]
Change in MIC, wild type vs response regulator mutant [1]: No change in MIC values
Change in MIC, wild type vs response regulator mutants [2]: No change in MIC values
